Assay results: the supplement of paper PMC10307832

Key:
Test in all cases: relative viability (nuclei count vs DMSO), 5 days (fraction); higher = more cells survive
[1] = test system: HCC-827
Method in brief: (§1)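 Values are medians from duplicate plates. Each reflects relative viability, defined as the nuclei count of treated wells over that of vehicle wells. Lung cancer cell lines in 1536-well plates were pin-tool dosed one day after seeding with one drug alone or with a fixed anchor-drug dose plus five library-drug doses (not always all listed) in √10 steps, then fixed, stained and imaged at 4× after 5 days.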

[2] = test system: NCI-H2342
Method in brief: as §1

[3] = test system: EKVX
Method in brief: as §1

[4] = test system: NCI-H1734
Method in brief: as §1

[5] = test system: NCI-H1975
Method in brief: as §1

[6] = test system: LCLC-97TM1
Method in brief: as §1

[7] = test system: NCI-H1355
Method in brief: as §1

[8] = test system: PC-14
Method in brief: as §1

[9] = test system: NCI-H1650
Method in brief: as §1

[10] = test system: NCI-H1563
Method in brief: as §1

[11] = test system: PC-3 [JPC-3]
Method in brief: as §1

[12] = test system: NCI-H322M
Method in brief: as §1

[13] = test system: CAL-12T
Method in brief: as §1

[14] = test system: H3255
Method in brief: as §1

[15] = test system: NCI-H1755
Method in brief: as §1

[16] = test system: NCI-H661
Method in brief: as §1

[17] = test system: LK-2
Method in brief: as §1

[18] = test system: NCI-H2405
Method in brief: as §1

[19] = test system: NCI-H520
Method in brief: as §1

[20] = test system: HCC-15
Method in brief: as §1

[21] = test system: RERF-LC-KJ
Method in brief: as §1

[22] = test system: NCI-H2228
Method in brief: as §1

Q: Which results are given for O=c1cc(N2CCOCC2)oc2c(-c3cccc4c3sc3ccccc34)cccc12 + COc1cc2c(Oc3ccc(NC(=O)C4(C(=O)Nc5ccc(F)cc5)CC4)cc3F)ccnc2cc1OCCCN1CCOCC1 [Foretinib] (partner 0.25 µM)?
A: relative viability ([1]; first compound 0.01 µM): 1.01; relative viability ([1]; first compound 0.03162 µM): 1.11; relative viability ([1]; first compound 0.1 µM): 1.03; relative viability ([1]; first compound 0.3162 µM): 1.04; relative viability ([1]; first compound 1 µM): 1.03; relative viability ([2]; first compound 0.01 µM): 1.04; relative viability ([2]; first compound 0.03162 µM): 1.11; relative viability ([2]; first compound 0.1 µM): 0.997; relative viability ([2]; first compound 0.3162 µM): 1.04; relative viability ([2]; first compound 1 µM): 1.07; relative viability ([3]; first compound 0.01 µM): 0.973; relative viability ([3]; first compound 0.03162 µM): 1.05; relative viability ([3]; first compound 0.1 µM): 0.818; relative viability ([3]; first compound 0.3162 µM): 0.628; relative viability ([3]; first compound 1 µM): 0.59; relative viability ([4]; first compound 0.01 µM): 0.851; relative viability ([4]; first compound 0.03162 µM): 1.03; relative viability ([4]; first compound 0.1 µM): 0.894; relative viability ([4]; first compound 0.3162 µM): 0.837; relative viability ([4]; first compound 1 µM): 0.78; relative viability ([5]; first compound 0.01 µM): 0.842; relative viability ([5]; first compound 0.03162 µM): 1.1; relative viability ([5]; first compound 0.1 µM): 1.1; relative viability ([5]; first compound 0.3162 µM): 0.927; relative viability ([5]; first compound 1 µM): 0.936; relative viability ([6]; first compound 0.01 µM): 0.905; relative viability ([6]; first compound 0.03162 µM): 0.926; relative viability ([6]; first compound 0.1 µM): 0.937; relative viability ([6]; first compound 0.3162 µM): 0.897; relative viability ([6]; first compound 1 µM): 0.92; relative viability ([7]; first compound 0.01 µM): 0.962; relative viability ([7]; first compound 0.03162 µM): 1.01; relative viability ([7]; first compound 0.1 µM): 0.952; relative viability ([7]; first compound 0.3162 µM): 0.986; relative viability ([7]; first compound 1 µM): 0.917; relative viability ([8]; first compound 0.01 µM): 0.957; relative viability ([8]; first compound 0.03162 µM): 0.965; relative viability ([8]; first compound 0.1 µM): 0.994; relative viability ([8]; first compound 0.3162 µM): 0.987; relative viability ([8]; first compound 1 µM): 0.948; relative viability ([9]; first compound 0.01 µM): 1.09; relative viability ([9]; first compound 0.03162 µM): 1.09; relative viability ([9]; first compound 0.1 µM): 1.04; relative viability ([9]; first compound 0.3162 µM): 1.21; relative viability ([9]; first compound 1 µM): 1.19; relative viability ([10]; first compound 0.01 µM): 0.913; relative viability ([10]; first compound 0.03162 µM): 0.833; relative viability ([10]; first compound 0.1 µM): 0.895; relative viability ([10]; first compound 0.3162 µM): 0.901; relative viability ([10]; first compound 1 µM): 0.888; relative viability ([11]; first compound 0.01 µM): 1.01; relative viability ([11]; first compound 0.03162 µM): 1.08; relative viability ([11]; first compound 0.1 µM): 1.05; relative viability ([11]; first compound 0.3162 µM): 1.01; relative viability ([11]; first compound 1 µM): 1.06; relative viability ([12]; first compound 0.01 µM): 0.91; relative viability ([12]; first compound 0.03162 µM): 0.903; relative viability ([12]; first compound 0.1 µM): 0.888; relative viability ([12]; first compound 0.3162 µM): 0.917; relative viability ([12]; first compound 1 µM): 0.849; relative viability ([13]; first compound 0.01 µM): 1.12; relative viability ([13]; first compound 0.03162 µM): 0.973; relative viability ([13]; first compound 0.1 µM): 1.14; relative viability ([13]; first compound 0.3162 µM): 1.03; relative viability ([13]; first compound 1 µM): 1.11; relative viability ([14]; first compound 0.01 µM): 0.82; relative viability ([14]; first compound 0.03162 µM): 0.952; relative viability ([14]; first compound 0.1 µM): 0.826; relative viability ([14]; first compound 0.3162 µM): 0.83; relative viability ([14]; first compound 1 µM): 0.943; relative viability ([15]; first compound 0.01 µM): 0.899; relative viability ([15]; first compound 0.03162 µM): 0.952; relative viability ([15]; first compound 0.1 µM): 0.959; relative viability ([15]; first compound 0.3162 µM): 0.926; relative viability ([15]; first compound 1 µM): 0.934; relative viability ([16]; first compound 0.01 µM): 0.996; relative viability ([16]; first compound 0.03162 µM): 1.05; relative viability ([16]; first compound 0.1 µM): 1.03; relative viability ([16]; first compound 0.3162 µM): 0.947; relative viability ([16]; first compound 1 µM): 1.03; relative viability ([17]; first compound 0.01 µM): 1.17; relative viability ([17]; first compound 0.03162 µM): 1.16; relative viability ([17]; first compound 0.1 µM): 1.53; relative viability ([17]; first compound 0.3162 µM): 0.958; relative viability ([17]; first compound 1 µM): 0.951; relative viability ([18]; first compound 0.01 µM): 1.07; relative viability ([18]; first compound 0.03162 µM): 1.07; relative viability ([18]; first compound 0.1 µM): 1.12; relative viability ([18]; first compound 0.3162 µM): 1.03; relative viability ([18]; first compound 1 µM): 1.02; relative viability ([19]; first compound 0.01 µM): 0.896; relative viability ([19]; first compound 0.03162 µM): 0.86; relative viability ([19]; first compound 0.1 µM): 0.725; relative viability ([19]; first compound 0.3162 µM): 0.774; relative viability ([19]; first compound 1 µM): 0.734; relative viability ([20]; first compound 0.01 µM): 1.01; relative viability ([20]; first compound 0.03162 µM): 1.09; relative viability ([20]; first compound 0.1 µM): 1.09; relative viability ([20]; first compound 0.3162 µM): 0.989; relative viability ([20]; first compound 1 µM): 0.971; relative viability ([21]; first compound 0.01 µM): 0.831; relative viability ([21]; first compound 0.03162 µM): 0.876; relative viability ([21]; first compound 0.1 µM): 0.91; relative viability ([21]; first compound 0.3162 µM): 0.852; relative viability ([21]; first compound 1 µM): 0.846; relative viability ([22]; first compound 0.01 µM): 0.864; relative viability ([22]; first compound 0.03162 µM): 1.08; relative viability ([22]; first compound 0.1 µM): 0.981; relative viability ([22]; first compound 0.3162 µM): 0.89; relative viability ([22]; first compound 1 µM): 0.9
